Measured values from patent publication US12590062B2, “PD-1/PD-L1 inhibitors” (Gilead Sciences, Inc., priority 2017, dated 2026).

Assays:
PD-1/PD-L1 = PD-1/PD-L1 (Homo sapiens, UniProt Q9NZQ7); assay: PD-1/PD-L1 biochemical protein-protein interaction assay (ALPHA); assay type: binding; conditions: 0.3 nM His tagged PD-L1, 2.5 nM biotinylated Fc-PD-1, 60 minutes at 25° C., read-out: IC50 PD-L1-PD-1 Alpha IC50-mono PD-L1-fcP-D1
Summary of the method: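 Extracellular-domain binding of His-tagged PD-L1 (0.3 nM final) to biotinylated Fc-PD-1 (2.5 nM final) was measured by ALPHA in 25 mM Hepes pH 7.4, 150 mM NaCl, 3.4 mM EDTA, 0.005% Tween 20, 0.01% BSA. After 60 min at 25° C, anti-His acceptor and streptavidin donor beads were added; IC50 from four-parameter fits.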

PD-1/PD-L1 interaction = target: T1, PD-1/PD-L1 interaction (Homo sapiens, UniProt Q9NZQ7); assay: PD-1/PD-L1 NFAT reporter co-culture assay; assay type: cell-based; conditions: Jurkat PD-1 NFAT-luciferase cells co-cultured with aAPC-PD-L1 CHO cells, 6 hrs at 37° C.; read-out: EC50 NFAT Luciferase
T1 construct: expressed in transfected cells; host or cells: CHO cells (aAPC-PD-L1) co-cultured with Jurkat cells overexpressing PD-1 and an NFAT-luciferase reporter
Summary of the method: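 CHO aAPC-PD-L1 seeded overnight; PD-1/NFAT-luc Jurkat + cpd in RPMI 1640, 2% FBS added at once; 6 h, 37 °C; ONE-Glo luminescence; EC50, 4-parameter fit.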

PD-L1 = target: T2, PD-L1 (Homo sapiens, UniProt Q9NZQ7); assay: PD-L1/PD-L1 dimerization biochemical protein-protein interaction assay (ALPHA); assay type: binding; conditions: compound-induced PD-L1 dimerization, head prints '1 nM' (0.5 nM His-tagged PD-L1 and 0.5 nM FLAG-tagged PD-L1), read-out: AC50 PDL1 Dimer Alpha 1 nM
T2 construct: determine if they can specifically dimerize the extracellular domains of PD-L1
Summary of the method: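 ALPHA proximity assay of compound-induced dimerization of 0.5 nM His-tagged and 0.5 nM FLAG-tagged PD-L1 extracellular domains in Hepes pH 7.4 buffer, 2 h at 25 °C. Anti-His acceptor then anti-FLAG donor beads, 60 min each; AC50 from four-parameter fit.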

T1 sequence (Q9NZQ7 19-290): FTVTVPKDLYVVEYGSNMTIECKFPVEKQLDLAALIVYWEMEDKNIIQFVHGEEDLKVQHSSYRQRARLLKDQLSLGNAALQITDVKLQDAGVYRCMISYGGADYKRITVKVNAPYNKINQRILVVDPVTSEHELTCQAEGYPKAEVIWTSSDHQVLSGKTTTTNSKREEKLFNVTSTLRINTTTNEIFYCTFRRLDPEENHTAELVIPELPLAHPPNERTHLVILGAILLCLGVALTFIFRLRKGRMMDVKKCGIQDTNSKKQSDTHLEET
T2 sequence (Q9NZQ7 19-238 limits assumed): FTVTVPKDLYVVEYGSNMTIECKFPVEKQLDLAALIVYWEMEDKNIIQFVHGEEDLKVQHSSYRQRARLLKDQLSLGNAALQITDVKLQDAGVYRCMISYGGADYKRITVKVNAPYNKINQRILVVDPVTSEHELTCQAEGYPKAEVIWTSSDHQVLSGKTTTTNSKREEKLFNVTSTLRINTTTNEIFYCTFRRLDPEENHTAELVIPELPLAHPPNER
T2 sequence (Q9NZQ7 19-238 limits assumed): as above
Sequence of PD-1/PD-L1 (Q9NZQ7 19-238 limits assumed): as above

SMILES | IC50 (PD-1/PD-L1) | EC50 (PD-1/PD-L1 interaction) | AC50 (PD-L1)
COc1nc(-c2cccc(-c3cccc(-c4cnn(CCN)c4)c3Cl)c2Cl)ccc1CNC[C@@H]1CCC(=O)N1 [Example 596, (S)-5-((((6-(3′-(1-(2-aminoethyl)-1H-pyrazol-4-yl)-2,2′-dichloro-[1,1′-biphenyl]-3-yl)-2-methoxypyridin-3-yl)methyl)amino)methyl)pyrrolidin-2-one] | 0.671 nM | 169 nM | 415 nM
COc1nc(-c2csc(-c3cccc(-c4ccc(CNC[C@@H]5CCC(=O)N5)c(OC)n4)c3Cl)c2)ccc1CNC[C@@H]1CCC(=O)N1 [Example 597, (S)-5-((((6-(2-chloro-3-(4-(6-methoxy-5-(((((S)-5-oxopyrrolidin-2-yl)methyl)amino)methyl)pyridin-2-yl)thiophen-2-yl)phenyl)-2-methoxypyridin-3-yl)methyl)amino)methyl)pyrrolidin-2-one] | 1.26 nM | 231 nM | 310 nM
COc1nc(-c2cccc(-c3cccc(-c4ccc5c(ccn5CCN(C)C)c4)c3Cl)c2Cl)ccc1CNC[C@@H]1CCC(=O)N1 [Example 598, (S)-5-((((6-(2,2′-dichloro-3′-(1-(2-(dimethylamino)ethyl)-1H-indol-5-yl)-[1,1′-biphenyl]-3-yl)-2-methoxypyridin-3-yl)methyl)amino)methyl)pyrrolidin-2-one] | 3 nM | 1840 nM | 480 nM
COc1nc(-c2cccc(-c3cccc(N4Cc5cc(CN6CC7(C6)CN(C(C)=O)C7)ccc5C4=O)c3Cl)c2Cl)ccc1CN1CC2(C1)CN(C(C)=O)C2 [Example 599, 5-((6-acetyl-2,6-diazaspiro[3.3]heptan-2-yl)methyl)-2-(3′-(5-((6-acetyl-2,6-diazaspiro[3.3]heptan-2-yl)methyl)-6-methoxypyridin-2-yl)-2,2′-dichloro-[1,1′-biphenyl]-3-yl)isoindolin-1-one] | 0.214 nM | ≥ 50000 nM | 7930 nM
COc1nc(-c2cccc(-c3csc(-c4cnc(CNC[C@@H]5CCC(=O)N5)c(OC)n4)c3)c2Cl)ccc1CNC[C@@H]1CCC(=O)N1 [Example 600] | 0.39 nM | 240 nM | 261 nM
COc1nc(-c2ccc(-c3cccc(-c4ccc(CNC[C@@H]5CCC(=O)N5)c(OC)n4)c3Cl)s2)ccc1CNC[C@@H]1CCC(=O)N1 [Example 601] | 5.27 nM | 748 nM | 1130 nM
COc1nc(-c2cccc(-c3cccc(-c4cnc5c(CNC[C@H]6CCC(=O)N6)cn(C)c5c4)c3Cl)c2Cl)ccc1CNC[C@H]1CCC(=O)N1 [Example 602] | 0.236 nM | 242 nM | 124 nM
COc1nc(-c2cccc(-c3cccc(-c4ccc5c(CNC[C@@H]6CCC(=O)N6)cc(=O)n(C)c5c4)c3Cl)c2Cl)ccc1CNC[C@@H]1CCC(=O)N1 [Example 603] | 0.206 nM | 158 nM | 235 nM
COc1nc(-c2cccc(-c3cccc(-c4ccc5c(CNC[C@@H]6CCC(=O)N6)cccc5c4)c3Cl)c2Cl)ccc1CNC[C@@H]1CCC(=O)N1 [Example 604] | 4.87 nM | 552 nM | 935 nM
COc1nc(-c2cccc(-c3cccc(-c4ccc5c(CNC[C@H]6CCC(=O)N6)cn(C)c5c4)c3Cl)c2Cl)ccc1CNC[C@H]1CCC(=O)N1 [Example 605] | 1.05 nM | 130 nM | 352 nM
COc1nc(-c2cccc(-c3cccc(-c4ccc5[nH]c(CN(C)C)cc5c4)c3Cl)c2Cl)ccc1CNC[C@@H]1CCC(=O)N1 [Example 606] | 6.23 nM | ≥ 50000 nM | 558 nM
COc1nc(-c2cccc(-c3cccc(-c4ccc5cc(CN(C)C)[nH]c5c4)c3Cl)c2Cl)ccc1CNC[C@@H]1CCC(=O)N1 [Example 607] | 1.19 nM | 1730 nM | 296 nM
COc1nc(-c2cccc(-c3cccc(-c4ccc5[nH]cc(CN(C)C)c5c4)c3Cl)c2Cl)ccc1CNC[C@@H]1CCC(=O)N1 [Example 608] | 1.72 nM | ≥ 50000 nM | 214 nM
COc1nc(-c2cccc(-c3cccc(-c4ccc5c(C[N+](C)(C)C)c[nH]c5c4)c3Cl)c2Cl)ccc1CNC[C@@H]1CCC(=O)N1 [Example 609] | 0.387 nM | 541 nM | 143 nM
COc1nc(-c2cccc(-c3cccc(-c4ccc5c(CN(C)C)c[nH]c5c4)c3Cl)c2Cl)ccc1CNC[C@@H]1CCC(=O)N1 [Example 610] | 0.746 nM | ≥ 50000 nM | 105 nM
COc1nc(-c2cccc(-c3cccc(-c4ccc5c(c4)[C@H](O)C[C@@H]5N)c3Cl)c2Cl)ccc1CNC[C@@H]1CCC(=O)N1 [Example 611] | 0.482 nM | 223 nM | 408 nM
COc1nc(-c2cccc(-c3cccc(-c4ccc5c(c4)CCC(N)C5)c3Cl)c2Cl)ccc1CN1CC2(CCC(=O)N2)C1 (stereo not drawn) [Example 612] | 2.45 nM | ≥ 50000 nM | 729 nM
COc1nc(-c2cccc(-c3cccc(-c4ccc5c(c4)C[C@@H](N)C5)c3Cl)c2Cl)ccc1CN1CC2(CCC(=O)N2)C1 [Example 613] | 1.38 nM | 484 nM | 158 nM
COc1nc(-c2cccc(-c3cccc(-c4ccc5ncc(CN6CC7(CCC(=O)N7)C6)n5c4)c3Cl)c2Cl)ccc1CN1CC2(CCC(=O)N2)C1 [Example 614] | 11.5 nM | ≥ 50000 nM | ≥ 10000 nM
COc1nc(-c2cccc(-c3cccc(-c4ccc5ncc(CN6CC(O)C6)n5c4)c3Cl)c2Cl)ccc1CN1CC(O)C1 [Example 615] | 7.88 nM | ≥ 50000 nM | ≥ 10000 nM
COc1nc(-c2cccc(-c3cccc(-c4ccn5cc(CN6CC(O)C6)nc5c4)c3Cl)c2Cl)ccc1CN1CC(O)C1 [Example 616] | 0.295 nM | ≥ 50000 nM | 156 nM
COc1nc(-c2cccc(-c3cccc(-c4ccn5cc(CN(C)C)nc5c4)c3Cl)c2Cl)ccc1CN(C)C [Example 617] | 0.17 nM | ≥ 50000 nM | 265 nM
COc1nc(-c2cccc(-c3cccc(-c4ccn5cc(CN6CC7(CCC(=O)N7)C6)nc5c4)c3Cl)c2Cl)ccc1CN1CC2(CCC(=O)N2)C1 [Example 618] | 0.224 nM | ≥ 50000 nM | 389 nM
COc1nc(-c2cccc(-c3cccc(-c4ccn5cc(CNC[C@@H]6CCC(=O)N6)nc5c4)c3Cl)c2Cl)ccc1CNC[C@@H]1CCC(=O)N1 [Example 619] | 0.159 nM | 187 nM | 118 nM
COc1nc(-c2cccc(-c3cccc(-c4ccc5ncc(CNCCO)n5c4)c3Cl)c2Cl)ccc1CNCCO [Example 620] | 2.84 nM | ≥ 50000 nM | ≥ 10000 nM
COc1nc(-c2cccc(-c3cccc(-c4ccc5ncc(CNC[C@@H](O)CC(=O)O)n5c4)c3Cl)c2Cl)ccc1CNC[C@@H](O)CC(=O)O [Example 621] | 1.04 nM | ≥ 50000 nM | ≥ 10000 nM
COc1nc(-c2cccc(-c3cccc(-c4ccc5ncc(CNC[C@@H]6CCC(=O)N6)n5c4)c3Cl)c2Cl)ccc1CNC[C@@H]1CCC(=O)N1 [Example 622] | 0.567 nM | ≥ 50000 nM | ≥ 10000 nM
COc1nc(-c2cccc(-c3cccc(-c4ccc5c(c4)[C@H](N)CC5)c3Cl)c2Cl)ccc1C1=NCCN1 [Example 623] | 5.2 nM | ≥ 50000 nM | ≥ 10000 nM
COc1nc(-c2cccc(-c3cccc(-c4ccc5c(c4)CCC5N)c3Cl)c2Cl)ccc1C1=NCCN1 (stereo not drawn) [Example 624] | 0.109 nM | ≥ 50000 nM | 20.9 nM
